Data reported in patent EP4755877A1, “MODIFIED FLAVONE COMPOUNDS AND USE THEREOF” (Suzhou Glenkol Pharma Technology Co., Ltd., priority 2023, dated 2025).
Where two headings read alike, the source gives them in different places.

Columns and labels:
[1] = Pharmacokinetics in rats after intravenous and oral gavage dosing, plasma LC-MS/MS; assay type: in vivo; settings: rat
Protocol: Preparation of intravenous bolus administration formulations: A graduation line for the final volume was marked on a clean and dry container. An appropriate amount of the test sample was weighed and added to the container to prepare a solution with a final concentration of 1 mg/mL.
Preparation of oral gavage administration formulations: A graduation line for the final volume was marked on a clean and dry container. An appropriate amount of the test sample was weighed and added to the container to prepare a solution with a final concentration of 3 mg/mL.
After preparation, the formulations were stored at room temperature and used on the day of preparation. A total of 2 groups of rats were set up, with […] per group (half male and half female). The compounds were administered to the rats at a dose of 1 mg/kg via intravenous injection and 15 mg/kg via oral gavage, respectively. All animals were allowed free access to food and water.
Intravenous administration: Before administration (0 h) and at 0.083, 0.167, 0.5, 1.0, 2.0, 4.0, 6.0, and 24 h after administration, 0.2 mL of blood samples were collected from the jugular vein and transferred to anticoagulant tubes (pre-cooled in advance for at least 5 minutes). The tubes were gently inverted several times to fully mix the blood with the anticoagulant. The blood samples were centrifuged at 4 °C for 10 minutes to separate the plasma. 95 µ L of plasma was collected and transferred to a centrifuge tube, which was stored in a refrigerator at below -80 °C until analysis.
Single oral gavage administration: Before administration (0 h) and at 0.167, 0.5, 1.0, 2.0, 4.0, 6.0, and 24 h after administration, 0.2 mL of blood samples were collected from the jugular vein and transferred to anticoagulant tubes. The sample processing method was the same as described above.
The concentration of the compounds in plasma was determined by LC-MS/MS, and data acquisition was performed using Analyst 1.6.3 software (AB Sciex). The pharmacokinetic parameters of the rats after administration were calculated using the non-compartmental model in Phoenix WinNonlin software.
7,8-dihydroxyflavone served as the control drug for comparing the pharmacokinetic characteristics of various compound. Table 3: PK parameters of various compound

PC-12 cells = experiment: Glutamate-induced excitotoxic death of PC-12 cells, survival by propidium iodide/Hoechst staining; assay type: cell-based, rat; settings: for Enhancement of Cell Survival Rate: PC-12 cells, glutamate-induced death, compound at 100 nM; for EC50: Rattus norvegicus, promotion of PC-12 survival under glutamate stimulation, 30 min pretreatment, 1 pM-100 µM, 24 h glutamate
Protocol: PC-12 cells (a […] cell line derived from rat adrenal medulla) were cultured in DMEM/F12 complete medium until 80-90% confluency. After being digested, collected, and resuspended, the cells were seeded into 24-well plates pre-coated with coverslips at a density of 5×10^4 cells per well. Following 26 hours of cell culture, glutamate-induced excitotoxic cell death modeling was performed. The modeling method was as follows: an appropriate amount of glutamate was weighed and dissolved in DMEM/F12 medium to prepare a stock solution; after filtration, the stock solution was diluted with the same medium, and the cells were administered with the diluted solution by medium replacement. After administration, the cells were further incubated for 24 hours.
Prior to glutamate modeling, cells incubated in the previous step were pretreated with small-molecule compounds listed in Table 1 at concentrations of 1 pM, 10 pM, 100 pM, 1 nM, 10 nM, 100 nM, 1 µM, 10 µM, and 100 µM for 30 minutes, followed by glutamate stimulation.
The cells treated with the compounds were stained with propidium iodide to assess cell death. After the medium was discarded, the cells were washed with PBS. Subsequently, propidium iodide/Hoechst was added. Following incubation for 30 minutes, the staining solution was removed, and the cells were washed with PBS again before being fixed and mounted on slides. Image acquisition was performed under a fluorescence microscope. The propidium iodide-positive cells and Hoechst-positive cells in the collected images were counted to calculate the cell survival rate. The survival rate was calculated using the formula: Cell survival rate = (1 - Number of Propidium Iodide-positive cells / Number of Hoechst-positive cells) × 100%. The gradient concentrations of the small molecule compounds and the corresponding normalized survival rates were imported into Prism software, and EC50 values were calculated using a non-linear regression model. 7,8-dihydroxyflavone was used as the positive control drug. Table 1: Dose-response relationship study of various compounds in promoting PC-12 neurocytes survival
Based on the aforementioned dose-response relationship study of the compounds, the inhibitory effects of different small molecule compounds on glutamate-induced excitotoxic death of PC-12 cells were further compared at the same dose (100 nM). Table 2: Study on the promoting effects of various compounds on PC-12 neurocytes survival

[2] = both sexes, Sprague-Dawley, SD rats, plasma, 15 mg/kg oral gavage / 1 mg/kg intravenous, table does not state the route
[3] = in vivo, SD rats, plasma, 15 mg/kg oral gavage / 1 mg/kg intravenous, table does not state the route
[4] = in vivo, SD rats, 15 mg/kg oral gavage vs 1 mg/kg intravenous, read-out: Oral Bioavailability F (%)
[5] = in vivo, SD rats, plasma, 15 mg/kg oral gavage / 1 mg/kg intravenous, table does not state the route, read-out: t1/2 (converted)

## O=c1cc(-c2ccccc2)oc2c(O)c(O)ccc12 [7,8-dihydroxyflavone, 7,8-dihydroxyflavone, reference compound]
[1]; both sexes, Sprague-Dawley, plasma, SD rats, 15 mg/kg oral gavage vs 1 mg/kg intravenous, read-out: Oral Bioavailability F (%)
  bioavailability: 1.9%
[1]; [2]
  AUC(0-t): 0.1 µM·h
  Cmax: 75.1 nM
[1]; both sexes, Sprague-Dawley, SD rats, plasma, 15 mg/kg oral gavage / 1 mg/kg intravenous, table does not state the route, read-out: t1/2 (converted)
  half-life: 3.32 h
PC-12 cells
  Enhancement of Cell Survival Rate: 33.58%
  EC50: 0.159 nM

## O=c1cc(-c2ccccc2)oc2c(F)c(O)ccc12 [Compound S1]
[1]; [3]
  AUC(0-t): 0.181 µM·h
  Cmax: 94.9 nM
PC-12 cells
  EC50: 0.012 nM

## O=C(O)[C@H]1O[C@@H](Oc2c(O)ccc3c(=O)cc(-c4ccccc4)oc23)[C@H](O)[C@@H](O)[C@@H]1O [Compound S7]
[1]; [3]
  AUC(0-t): 2.36 µM·h
  Cmax: 245 nM
[1]; [4]
  bioavailability: 66.9%
PC-12 cells
  EC50: 0.0111 nM

## O=c1cc(C2CCNCC2)oc2c(O)c(O)ccc12 [Compound S12]
[1]; [3]
  AUC(0-t): 0.151 µM·h
  Cmax: 113 nM
[1]; [5]
  half-life: 1.84 h
[1]; [4]
  bioavailability: 1.9%
PC-12 cells
  EC50: < 0.001 nM

## [2H]c1c([2H])c([2H])c(-c2cc(=O)c3ccc(O[C@@H]4O[C@H](C(=O)O)[C@@H](O)[C@H](O)[C@H]4O)c(O)c3o2)c([2H])c1[2H] [Compound S25]
[1]; [3]
  Cmax: 3590 nM
[1]; [5]
  half-life: 5.38 h
[1]; [4]
  bioavailability: 52%

## O=c1cc(C2CCNCC2)oc2c(F)c(O)ccc12 [Compound S26]
[1]; [3]
  AUC(0-t): 0.252 µM·h
  Cmax: 68.1 nM
[1]; [5]
  half-life: 4.54 h

## O=c1cc(C2CCNCC2)oc2c(O[C@@H]3OC[C@@H](O)[C@H](O)[C@H]3O)c(O)ccc12 [Compound S27]
[1]; in vivo
  half-life: 1.77 h

## O=c1cc(C2CCNCC2)oc2c(O[C@@H]3O[C@H](CO)[C@@H](O)[C@H](O)[C@H]3O)c(O)ccc12 [Compound S28]
[1]; in vivo
  half-life: 16.7 h
[1]; in vivo, po, 15 mg/kg
  bioavailability: 2.72%
PC-12 cells
  Enhancement of Cell Survival Rate: 43.06%

## COc1ccc2c(=O)cc(C3CCNCC3)oc2c1O [Compound S29]
[1]; [3]
  AUC(0-t): 0.331 µM·h
  Cmax: 91.3 nM
[1]; [5]
  half-life: 2.57 h
[1]; [4]
  bioavailability: 3.38%
PC-12 cells
  Enhancement of Cell Survival Rate: 73.51%

## O=c1cc(C2CCNCC2)oc2c(F)c(F)ccc12 [Compound S30]
[1]; [3]
  AUC(0-t): 10.3 µM·h
  Cmax: 1260 nM
[1]; [5]
  half-life: 11.4 h
[1]; [4]
  bioavailability: 112%
PC-12 cells
  Enhancement of Cell Survival Rate: 83.78%
